# Article PMC7717600, “Novel [(N-alkyl-3-indolylmethylene)hydrazono]oxindoles arrest cell cycle and induce cell apoptosis by inhibiting CDK2 and Bcl-2: synthesis, biological evaluation and in silico studies” (Journal of Enzyme Inhibition and Medicinal Chemistry, 2020)
# Where two headings read alike, the source gives them in different places.
# How the values were obtained:
# HOP-62 = assay: cells; details: Homo sapiens, HOP-62, read-out: LC50
# 786-0 = assay: cells; details: Homo sapiens
# HT29 = details: for TGI: HT29
# IGROV1 = details: for TGI: IGROV1
# HCT-15 = assay: cells; details: Homo sapiens
# M14 = assay: NCI SRB screening; assay type: cell-based
# MDA-MB-435 = assay: NCI SRB screening; assay type: cell-based
# [1] = system: breast T-47D cancer cells; assay: Cell cycle analysis by DNA flow cytometry; assay type: cell-based, human; details: 8a at GI50 concentration (0.41 µM), 24 h
# Protocol: were washed twice with ice-cold phosphate buffered saline (PBS). Subsequently, the treated cells were collected by centrifugation, fixed in ice-cold 70% (v/v) ethanol, washed with PBS, re-suspended with 100 μg/mL RNase, stained with 40 μg/mL PI, and analyzed by flow cytometry using FACS Calibur (Becton Dickinson, BD, Franklin Lakes, NJ, USA). The cell cycle distributions were calculated using CellQuest software 5.1 (Becton Dickinson).
# SR = assay: cells; details: Homo sapiens
# NCI/ADR-RES = assay: cells; details: Homo sapiens
# NCI-H23 = details: for TGI: NCI-H23
# COLO 205 = assay: NCI SRB screening; assay type: cell-based, human
# SK-MEL-28 = assay: cells; details: Homo sapiens
# NCI-H522 = assay: cells; details: Homo sapiens
# KM12 = details: for TGI: KM12
# RPMI-8226 = assay: cells; details: Homo sapiens
# HS 578T = assay: cells; details: Homo sapiens
# SF-268 = details: for TGI: SF-268
smiles,measurement,setting,value
CCCn1cc(C=NN=C2C(=O)Nc3ccc(C)cc32)c2ccccc21 [Compound 8a],CC50,HOP-62,> 100 µM
same,GI50,786-0; 786-0,5.94 µM
same,CC50,"786-0; 786-0, read-out: LC50",> 100 µM
same,TGI,HT29,>100 µM
same,GI %,"HT29; HT29, 10 μM",83%
same,Growth Percent,"HT29; HT29, 1.00E-5 Molar",17.08%
same,TGI,HT29; listed as D - 795311 / 1,> 1.00E-4 Molar
same,TGI,SN12C,75.90 µM
same,GI %,SN12C; 10 μM,51%
same,Growth Percent,SN12C; 1.00E-5 Molar,49.93%
same,TGI,SN12C; listed as D - 795311 / 1,7.59E-5 Molar
same,TGI,EKVX,>100 µM
same,GI %,EKVX; 10 μM,50%
same,Growth Percent,EKVX; 1.00E-5 Molar,50.45%
same,TGI,EKVX; listed as D - 795311 / 1,> 1.00E-4 Molar
same,TGI,IGROV1,63.10 µM
same,GI %,"IGROV1; IGROV1, 10 μM",61%
same,Growth Percent,"IGROV1; IGROV1, 1.00E-5 Molar",39.38%
same,TGI,IGROV1; listed as D - 795311 / 1,6.31E-5 Molar
same,GI50,HCT-15; HCT-15,2.63 µM
same,CC50,"HCT-15; HCT-15, read-out: LC50",> 100 µM
same,GI50,"M14; Homo sapiens, M14",1.92 µM
same,TGI,M14; M14,4.70 µM
same,GI %,"M14; M14, 10 μM",44%
same,Growth Percent,"M14; M14, 1.00E-5 Molar",56.29%
same,TGI,"M14; M14, listed as D - 795311 / 1",4.70E-6 Molar
same,GI50,"MDA-MB-435; Homo sapiens, MDA-MB-435",1.5 µM
same,TGI,MDA-MB-435; MDA-MB-435,2.96 µM
same,GI %,"MDA-MB-435; MDA-MB-435, 10 μM",127%
same,Growth Percent,"MDA-MB-435; MDA-MB-435, 1.00E-5 Molar",-26.64%
same,TGI,"MDA-MB-435; MDA-MB-435, listed as D - 795311 / 1",2.96E-6 Molar
same,cell population in sub-G1 phase,[1]; control 1.25%,17.73%
same,G2/M phase fraction,[1]; control 19.19%,34.05%
same,GI50,SR,0.521 µM
same,CC50,SR; read-out: LC50,> 100 µM
same,GI50,NCI/ADR-RES,6.39 µM
same,CC50,NCI/ADR-RES; read-out: LC50,> 100 µM
same,TGI,NCI-H23,38.2 µM
same,GI %,"NCI-H23; NCI-H23, 10 μM",52%
same,Growth Percent,"NCI-H23; NCI-H23, 1.00E-5 Molar",48.03%
same,TGI,NCI-H23; listed as D - 795311 / 1,3.82E-5 Molar
same,TGI,COLO 205; COLO 205,3.06 µM
same,GI %,"COLO 205; COLO 205, 10 μM",116%
same,Growth Percent,"COLO 205; COLO 205, 1.00E-5 Molar",-16.20%
same,TGI,"COLO 205; COLO 205, listed as D - 795311 / 1",3.06E-6 Molar
same,GI50,"COLO 205; Homo sapiens, COLO 205",1.25 µM
same,GI50,SK-MEL-28; SK-MEL-28,4.7 µM
same,CC50,"SK-MEL-28; SK-MEL-28, read-out: LC50",> 100 µM
same,GI50,NCI-H522; NCI-H522,1.81 µM
same,CC50,"NCI-H522; NCI-H522, read-out: LC50",> 100 µM
same,TGI,KM12,19.7 µM
same,GI %,"KM12; KM12, 10 μM",40%
same,Growth Percent,"KM12; KM12, 1.00E-5 Molar",59.92%
same,TGI,KM12; listed as D - 795311 / 1,1.97E-5 Molar
same,GI50,RPMI-8226; RPMI-8226,1.33 µM
same,CC50,"RPMI-8226; RPMI-8226, read-out: LC50",> 100 µM
same,GI50,HS 578T,11.3 µM
same,CC50,HS 578T; read-out: LC50,> 100 µM
same,TGI,SF-268,28.0 µM
same,GI %,"SF-268; SF-268, 10 μM",54%
same,Growth Percent,"SF-268; SF-268, 1.00E-5 Molar",46.59%
same,TGI,SF-268; listed as D - 795311 / 1,2.80E-5 Molar
